Source: PMC9879939, “Synergy of ruthenium metallo-intercalator, [Ru(dppz)2(PIP)]^2+, with PARP inhibitor Olaparib in non-small cell lung cancer cells” (Scientific Reports, 2023)
“And” between values parts separate entries of the source, which are not always exact repeats. Equal values may be shown once.

What was measured:
[1] = test system: A549 lung cancer cells; test: MTT assay (cell viability; CI and SI derived from it); type: cell-based, human; settings: for IC50: A549, max tested 100 μM, combinations: Ru-PIP gradient with fixed Olaparib; for Selectivity Index (SI) = IC50 normal cells/IC50 cancer cells: MRC5 vs A549
Experimental: (§1) Cells were seeded in 96-well plates at 5 × 10^3 cells/well and allowed to adhere overnight. […] For drug combination treatment, cells were treated with concentration gradient of Ru-PIP (3.125–100 µM) in combination with Olaparib (5 or 10 µM). After 24, 48 or 72 h incubation, 0.5 mg/ml thiazolyl blue tetrazolium bromide (MTT) dissolved in 1X PBS was added to each well and cells were incubated at 37 °C for 4 h. 100 µl of DMSO was added to each well to solubilize the reduced purple formazan crystals formed. Next, the absorbance at 570 nm (630 nm as reference wavelength) was measured using a microplate reader. The half maximal inhibitory concentration (IC50) for each compound was determined using GraphPad Prism software. Additionally, selectivity indices (SI) were determined by the ratio between IC50 of normal cells and that of cancer cells.
(§2) Based on the data obtained from MTT assay, combination indices (CI) were determined using Calcusyn and CompuSyn software (Biosoft, Cambridge, UK). This is based on the established drugs combination method by Chou and Talalay[30],[31]. CI values indicate the type of drugs interaction in which CI < 0.9 indicates synergism, CI = 0.9–1.0 indicates additive and CI > 1.0 indicates antagonism. GraphPad Prism software was used to generate a three-color scale based on CI values obtained, where synergism is represented by green, additive by yellow, and antagonism by red in which the colors of each CI value were interpolated in between these constraints accordingly.

[2] = test system: H1975 lung cancer cells; test: as above; type: cell-based, human; settings: for IC50: H1975, max tested 100 μM, combinations: Ru-PIP gradient with fixed Olaparib; for Selectivity Index (SI) = IC50 normal cells/IC50 cancer cells: MRC5 vs H1975
Experimental: as §1, §2

[3] = test system: T24 bladder cancer cells; test: as above; type: cell-based, human; settings: for IC50: T24, max tested 100 μM, combinations: Ru-PIP gradient with fixed Olaparib; for Selectivity Index (SI) = IC50 normal cells/IC50 cancer cells: MRC5 vs T24
Experimental: as §1, §2

[4] = test system: MRC5 normal human lung fibroblasts; test: MTT assay (cell viability); type: cell-based; settings: max tested 100 μM, combinations: Ru-PIP gradient with fixed Olaparib
Experimental: as §1

[5] = test system: A549, H1975 and T24 cells; test: MTT assay, summary statements over the cancer cell lines; type: cell-based, human
Experimental: as §1

[6] = test system: A549 cells; test: Wound healing assay; type: cell-based, human
Experimental: Lung cancer cells were seeded at density of 5 × 10^5 cells/well in a 6-well plate and were incubated in the incubator until a confluent monolayer of cells formed. After serum-starved for 4 h, a straight scratch was made in each well with a sterile 200 µl pipette tip, solution was removed, and each well was washed with 1X PBS twice. Cells were treated with Ru-PIP (25 µM), Olaparib (5 µM) or both. Cells migration in the wound scratch area was photographed at 0, 24, 48 and 72 h timepoints. Images were photographed at 10 × magnification using a camera attached microscope and were analyzed using ImageJ software. The percentage of wound scratch closure was determined by measuring the reduction in the wound area at each time point by comparing to 0 h (100%).

[7] = test system: A549 cells; test: Cell cycle analysis (PI staining, flow cytometry); type: cell-based, human; settings: Ru-PIP 25 µM, 24 h
Experimental: Lung cancer cells were seeded in 6-well plate at density of 1 × 10^5 cells/well and allowed to adhere overnight. Cells were treated with Ru-PIP (25 µM), Olaparib (5 µM) or both. After 24 or 48 h incubations, cells were harvested, washed with 1X PBS twice, and fixed with ice-cold 70% ethanol at least overnight at − 20 °C. The fixed cells were collected by centrifugation at 1,000 rpm for 5 min and the resulting pellets were washed with 1X PBS twice. The samples were resuspended in 500 µl PBS and treated with 5 µl RNase A solution (10 mg/ml) for 15 min at RT. After incubation, the samples were stained with 2 µl of propidium iodide (PI) solution (5 mg/ml) at RT, in the dark. Samples were acquired, and cell cycle distribution was analyzed using NovoCyte flow cytometer and NovoExpress software. For each sample, a minimum of 10,000 cells were counted and analyzed.

[8] = test system: A549 cells; test: Apoptosis annexin V-FITC assay; type: cell-based, human
Experimental: Lung cancer cells were seeded in 6-well plate at 1 × 10^5 cells/well and allowed to adhere overnight. Cells were treated with Ru-PIP (25 µM), Olaparib (5 µM) or both. After 24 or 48 h incubations, cells were harvested, washed with 1X PBS twice and 500 µl of 1X binding buffer was added to the samples. After, the samples were incubated with 5 µl Annexin V-FITC (Invitrogen) for 20 min at RT. Prior to flow cytometric analysis, 5 µl of PI was added. Samples were acquired was analyzed using NovoCyte flow cytometer and NovoExpress software. For each sample, a minimum of 10,000 cells were counted and analyzed.

[9] = test system: A549 spheroids; test: Spheroids growth inhibition studies; type: cell-based, human; settings: Ru-PIP 25 µM; for structural integrity of pre-formed spheroids: Olaparib 5 µM or both, 12 days after treatment initiation
Experimental: Spheroids establishment was attempted for A549 lung cancer cells using hanging drop method. 20 µL of cell suspension containing 2000, 4000, 6000, 8000 and 10,000 cells were dropped onto the surface of petri dish lid and incubated at 37 °C, such that each drop will contain single spheroid. After three days of incubation, each spheroid formed was transferred onto agarose-coated (50 µL, 0.6%) 96-well plates containing 80 µL growth media and further incubated for 15 days at 37 °C, such that each well contained a single spheroid. Formation of spheroids was observed and imaged every three days using a light microscope with a 4 × objective lens connected to a digital camera. During growth, 50% of the media was replaced every three days. The growth in volume of each spheroid was determined according to a published method. At least six spheroids were grown per seeding density for each independent experiment.
Spheroids were grown as described initially. Initial cell seeding density was chosen such that each spheroid reached a diameter of approximately 400 μm after three days (4,000 cells/well for A549 cells). After spheroids formation, spheroids were incubated with Ru-PIP (25 µM), Olaparib (5 µM) or both for a period of 12 days. The structural integrity of spheroids upon treatment was observed and imaged for every three days using a light microscope with a 4 × objective lens connected to a digital camera, and the volume of each spheroid was measured according to a published method. Prior to imaging, 50% of treatment-containing medium was replaced (every three days). At least six spheroids were grown per treatment for each independent experiment.

[10] = in vivo; settings: zebrafish, in vivo
Experimental: (§3) The newly fertilized eggs at less than 1 hpf (hours post fertilization) were collected, washed with deionized water and incubated at RT (28 ± 1 °C) in Danio-SprintM embryo media. […] Untreated control consisting of Danio-SprintM embryo media containing 0.1% DMSO. 24 embryos were used in total for each concentration per treatment of two independent experiments (n = 24). The zebrafish embryos development was observed and imaged using a light microscope attached to a digital camera at 24, 48, 72 and 96 hpf (hours post fertilization). Four lethal endpoints were evaluated including coagulated embryos, lack of somite formation, non-detachment of the tail and lack of heartbeat. All these characteristics were recorded every 24 hpf, except heartbeat, which is visible after 48 hpf. […] Hatching which is also considered as a sensitive endpoint toxicity parameter was also observed in which hatching normally occurs at 48 to 72 hpf.

[11] = test system: zebrafish embryos; test: Acute toxicity test on zebrafish embryos (OECD Test No. 236); settings: zebrafish embryos
Experimental: as §3

[12] = 24 h, Ru-PIP 25 µM or Olaparib 5 µM

Structure (SMILES): N.N.[Cl][Pt][Cl] [Cisplatin, cis-diamminedichloroplatinum(II)]
- IC50 ([1]; 24 h): 6.6 ± 2 µM
- IC50 ([1]; 48 h): 4.8 ± 0.5 µM
- IC50 ([1]; 72 h): 2.9 ± 1.2 µM
- IC50 ([2]; 24 h): 26.6 ± 9.9 µM
- IC50 ([2]; 48 h): 20 ± 6.7 µM
- IC50 ([2]; 72 h): 13.5 ± 5.7 µM
- IC50 ([3]; 24 h): 59.6 ± 7 µM
- IC50 ([3]; 48 h): 20.8 ± 7.2 µM
- IC50 ([3]; 72 h): 7.3 ± 1.1 µM
- IC50 ([4]; 24 h): 13.5 ± 2.4 µM
- IC50 ([4]; 48 h): 9.5 ± 1.2 µM
- IC50 ([4]; 72 h): 7.4 ± 2 µM

Structure (SMILES): O=C(c1cc(Cc2n[nH]c(=O)c3ccccc23)ccc1F)N1CCN(C(=O)C2CC2)CC1 [Olaparib]
- IC50 ([1]; Homo sapiens, 24 h): > 100 µM
- IC50 ([1]; Homo sapiens, 48 h): > 100 µM
- IC50 ([1]; Homo sapiens, 72 h): > 100 µM
- IC50 ([2]; Homo sapiens, NCI-H1975, 24 h): > 100 µM
- IC50 ([2]; Homo sapiens, NCI-H1975, 48 h): > 100 µM
- IC50 ([2]; Homo sapiens, NCI-H1975, 72 h): 71.7 ± 11.8 µM
- Selectivity Index (SI) = IC50 normal cells/IC50 cancer cells ([2]; 72 h): >1.3
- IC50 ([3]; Homo sapiens, 24 h): > 100 µM
- IC50 ([3]; Homo sapiens, 48 h): > 100 µM
- IC50 ([3]; Homo sapiens, 72 h): > 100 µM
- IC50 ([4]; Homo sapiens, 24 h): > 100 µM
- IC50 ([4]; Homo sapiens, 48 h): > 100 µM
- IC50 ([4]; Homo sapiens, 72 h): > 100 µM
- IC50 ([5]; Homo sapiens, 72 h, A549, H1975 and T24 cells together, read-out: 72 h IC50 on the tested cancer cells): > 71.7 µM
- impact on cell migration ([6]; Olaparib 5 µM): negligible impact on cell migration
- cell cycle profile ([7]; Olaparib 5 µM or both): comparable cell cycle profile with the untreated control
- levels of apoptotic cells [8, 12]: comparable levels of apoptotic cells with untreated control
- structural integrity of pre-formed spheroids [9]: remained structurally intact
- LC50 at 96 h [10]: > 100 µg/mL
- morphological changes of embryos ([11]; > 25 mg/L): substantial morphological abnormalities of pericardial edema, yolk sac edema and spinal deformity

Structure (SMILES): [Ru+2].c1ccc(-c2nc3c4cccnc4c4ncccc4c3[nH]2)cc1.c1ccc2nc3c4cccnc4c4ncccc4c3nc2c1.c1ccc2nc3c4cccnc4c4ncccc4c3nc2c1 [Ru-PIP, [Ru(dppz)2(PIP)]^2+]
- IC50 ([1]; 24 h): 34.5 ± 10.5 µM
- IC50 ([1]; 48 h): 19.4 ± 3.5 µM
- IC50 ([1]; 72 h): 11.4 ± 0.3 µM
- Selectivity Index (SI) = IC50 normal cells/IC50 cancer cells ([1]; 24 h): >2.8
- Selectivity Index (SI) = IC50 normal cells/IC50 cancer cells ([1]; 48 h): 4.6
- Selectivity Index (SI) = IC50 normal cells/IC50 cancer cells ([1]; 72 h): > 8.7
- IC50 ([2]; 24 h): > 100 µM
- IC50 ([2]; 48 h): 95.1 ± 2.9 µM
- IC50 ([2]; 72 h): 59.4 ± 11.6 µM
- Selectivity Index (SI) = IC50 normal cells/IC50 cancer cells ([2]; 48 h): 0.9
- Selectivity Index (SI) = IC50 normal cells/IC50 cancer cells ([2]; 72 h): >1.6
- Selectivity Index (SI) = IC50 normal cells/IC50 cancer cells ([3]; 24 h): >2.2
- Selectivity Index (SI) = IC50 normal cells/IC50 cancer cells ([3]; 48 h): 4.0
- Selectivity Index (SI) = IC50 normal cells/IC50 cancer cells ([3]; 72 h): >6.3
- IC50 ([3]; 24 h): 45.1 ± 6.2 µM
- IC50 ([3]; 48 h): 22.7 ± 2.8 µM
- IC50 ([3]; 72 h): 15.8 ± 2.9 µM
- IC50 ([4]; 24 h): > 100 µM
- IC50 ([4]; 48 h): 91 ± 7.9 µM
- IC50 ([4]; 72 h): > 100 µM
- selectivity indices (SI) ([5]; 72 h treatments, A549, H1975 and T24 cells vs normal MRC5 cells): > 1.6
- wound closure ([6]; Ru-PIP 25 µM, time point not stated (untreated 100% closed at 72 h)): 88%
- increase in G1 phase compared to control [7]: 16.1%
- levels of apoptotic cells [8, 12]: comparable levels of apoptotic cells with untreated control
- levels of apoptotic cells ([8]; 48 h, Ru-PIP 25 µM alone or with Olaparib 5 µM): increase in apoptotic cells was observed
- spheroid growth ([9]; 12 days): prevented spheroid growth
- structural integrity of pre-formed spheroids [9]: remained structurally intact
- embryos showing yolk sac edema ([11]; 50 mg/L Ru-PIP alone, 96 hpf): 33%
- embryos' hatching prevented ([11]; 100 mg/L): ~100%
- 96 h LC50 ([11]; 96 h treatment): 57.5 µg/mL and 55.5 µg/mL
- survival and morphological changes of embryos ([11]; < 25 mg/L): the embryos survive without any morphological defects
